Results taken from the SangsterLogP compilation.

Compound	logP
Cc1ccc2c(C)ccc(C)c2c1	4.55
Cc1ccc2ccc(C)cc2c1	4.37
Cc1ccc2cc(C)ccc2c1	4.39
Cc1ccc2c(C)c(C)ccc2c1C	4.95
Cc1ccc2cccc(C)c2c1	4.19
Cc1cc(C)c2ccccc2c1C	4.49
Cc1ccc2c(C)cccc2c1	4.27
Cc1ccc2ccccc2c1	3.96
Cc1ccc2cc(C)c(C)cc2c1	4.7
Cc1ccc(C)c2ccccc12	4.22
Cc1cc(C)c2cc(C)ccc2c1	4.38
Cc1cccc2c(C)cccc12	4.22
Cc1ccc(C)c2c(C)cccc12	4.48
Cc1cc2c(C)ccc(C)c2cc1C	4.74
Cc1cc(C)c2c(C)cccc2c1	4.52
